# Measured values reported in patent US6793839B1, “Cucurbiturils and method for synthesis” (Unisearch Limited, priority 1999, dated 2004).
# Columns and labels:
# [1] = uptake of carbon monoxide; format: binding
# Source text: Accordingly, the invention further provides a method for removing carbon monoxide from a liquid or vapour containing carbon monoxide by contacting the liquid or vapour with cucurbit[5]uril.
# [2] = binding of dioxane in aqueous solutions
# Source text: This dioxane binding properly can form the basis of processes for the removal of dioxane. According to a further aspect of the present invention, the present invention provides a process for removing dioxane from a fluid comprising contacting the fluid with cucurbit[6]uril and/or cucurbit[7]uril.
# [3] = solubility in acid and salt solutions; format: physicochemical; details: 0.1M Na2SO4 solution
# Source text: All of the cucurbit[n]urils that have been observed are apparently soluble in acid solutions. Cucurbit[5 or 7 or 8 or 10]uril have been purified by successive recrystallisations from acid solutions. Because of the similar nature of the cucurbiturils, this is a slow process with more than 10 recrystallisations required to purify cucurbit[7]uril. As shown in the German patents cucurbit[6]uril can be obtained in a relatively pure state from a single recystallisation process.
# The present invention provides a method for producing a range of cucurbit[n]urils and cucurbit[s,u]urils. The synthesis method results in the production of a number of cucurbit[n]urils and cucurbit[s,u]urils that have never before been produced or isolated. Separation is possible via chromatography and/or selective precipitation. The product cucurbit[n]urils and cucurbit[s,u]urils are stable to vigorous reaction conditions over a wide range of pH values. They are soluble in aqueous acid or aqueous salt solutions. The method gives cucurbiturils in much larger yields than previously possible. The use of templating compounds allows a degree of control over the relative amounts of the different cucurbit[n]urils being produced.
Compound,uptake of carbon monoxide [1],binding of dioxane [2],dissolution in salt solution out of a mixture containing cucurbit[5-8]urils [3]
O=C1N2CN3C(=O)N4CN5C(=O)N6CN7C(=O)N8CN9C(=O)N%10CN1C1C2N2CN%11C(=O)N(CN%12C(=O)N(CN%13C(=O)N(CN%14C(=O)N(CN1C2=O)C%10C9%14)C8C7%13)C6C5%12)C4C3%11 (centres unmarked) [cucurbit[5]uril],has shown uptake of carbon monoxide,,
O=C1N2CN3C(=O)N4CN5C(=O)N6CN7C(=O)N8CN9C(=O)N%10CN%11C(=O)N%12CN1C1C2N2CN%13C(=O)N(CN%14C(=O)N(CN%15C(=O)N(CN%16C(=O)N(CN%17C(=O)N(CN1C2=O)C%12C%11%17)C%10C9%16)C8C7%15)C6C5%14)C4C3%13 (centres unmarked) [cucurbit[6]uril],,bind dioxane,dissolving cucurbit[6 or 7]uril out of the complex mixture
cucurbit[7]uril,,bind dioxane,dissolving cucurbit[6 or 7]uril out of the complex mixture
